Where two headings read alike, the source gives them in different places.
Assays:
[1] = target: T1, α2A adrenergic receptor (Homo sapiens, UniProt P08913); test: SelectScreen cell-based GPCR profiling, α2A agonist assay; conditions: 5 hours incubation, fluorescence read
T1 sequence (P08913 1-465): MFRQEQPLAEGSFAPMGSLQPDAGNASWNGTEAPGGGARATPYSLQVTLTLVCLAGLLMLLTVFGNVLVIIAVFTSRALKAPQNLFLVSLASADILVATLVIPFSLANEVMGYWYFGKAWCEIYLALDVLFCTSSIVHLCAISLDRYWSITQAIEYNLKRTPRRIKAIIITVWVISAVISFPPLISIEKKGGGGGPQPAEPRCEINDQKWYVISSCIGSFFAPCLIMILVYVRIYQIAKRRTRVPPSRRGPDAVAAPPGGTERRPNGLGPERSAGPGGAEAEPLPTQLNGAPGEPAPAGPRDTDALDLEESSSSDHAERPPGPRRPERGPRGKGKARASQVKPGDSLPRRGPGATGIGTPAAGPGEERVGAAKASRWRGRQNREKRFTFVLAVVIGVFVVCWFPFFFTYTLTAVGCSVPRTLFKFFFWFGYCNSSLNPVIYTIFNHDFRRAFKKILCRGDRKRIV
Method: (§1) The Compounds of Formulas (III)-(V) were subjected to an in vitro screening against α1A, α2A, and β2 adrenergic receptors using SelectScreen® Cell-based GPCR Profiling Service from Life Technologies. In each of the three agonist assays (α1A, α2A, and β2), cells were thawed and resuspended in Assay Media (DMEM, 10% dialyzed FBS, 25 mM HEPES pH 7.3, 0.1 mM NEAA, 100 U/mL/100 μg/mL Pen/Strep) to a concentration of 312,500 cells/mL. 32 μL of cell suspension (10,000 cells) were added to each well of a 384-well TC-Treated assay plate. Cells in Assay Media were incubated for 16-24 hours in the plate at 37° C./5% CO2 in a humidified incubator. 4 μL of a 10× serial dilution of a control agonist (phenylephrine for α1A; UK 14304 for α2A; isoproterenol for β2) or a Compound III-V were added to appropriate wells of the plate. 4 μL of Assay Media was added to all wells to bring the final assay volume to 40 μL. The plate was incubated for 5 hours at 37° C./5% CO2 in a humidified incubator. 8 μL of 1 μM Substrate+Loading Solution was added to each well and the plate was incubated for 2 hours at room temperature. The plate was read on a fluorescence plate reader.

[2] = target: β2 adrenergic receptor (Homo sapiens, UniProt P07550); test: SelectScreen cell-based GPCR profiling, β2 agonist assay; conditions: 5 hours incubation, fluorescence read
β2 adrenergic receptor, sequence (P07550 whole entry): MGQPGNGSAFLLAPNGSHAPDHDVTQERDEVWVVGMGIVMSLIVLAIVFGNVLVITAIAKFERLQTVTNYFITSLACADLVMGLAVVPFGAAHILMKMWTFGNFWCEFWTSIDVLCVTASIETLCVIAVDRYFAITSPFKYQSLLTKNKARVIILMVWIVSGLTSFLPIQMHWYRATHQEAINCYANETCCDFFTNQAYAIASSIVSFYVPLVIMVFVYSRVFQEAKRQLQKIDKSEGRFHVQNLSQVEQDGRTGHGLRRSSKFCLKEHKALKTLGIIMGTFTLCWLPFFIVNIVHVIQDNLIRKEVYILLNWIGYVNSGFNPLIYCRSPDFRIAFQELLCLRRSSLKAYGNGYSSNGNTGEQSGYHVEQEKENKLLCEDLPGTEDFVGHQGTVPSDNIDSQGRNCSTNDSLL
Method: as §1

[3] = target: T2, α1A adrenergic receptor (Homo sapiens, UniProt P35348); test: SelectScreen cell-based GPCR profiling, α1A agonist assay; conditions: for selectivity of agonism (α1A and/or α2A EC50 less than 1,000 nM and insignificant activity at β2): classification in words from Table 1 EC50 values, insignificant β2 activity = EC50 greater than about 500 nM
T2 sequence (P35348 1-466): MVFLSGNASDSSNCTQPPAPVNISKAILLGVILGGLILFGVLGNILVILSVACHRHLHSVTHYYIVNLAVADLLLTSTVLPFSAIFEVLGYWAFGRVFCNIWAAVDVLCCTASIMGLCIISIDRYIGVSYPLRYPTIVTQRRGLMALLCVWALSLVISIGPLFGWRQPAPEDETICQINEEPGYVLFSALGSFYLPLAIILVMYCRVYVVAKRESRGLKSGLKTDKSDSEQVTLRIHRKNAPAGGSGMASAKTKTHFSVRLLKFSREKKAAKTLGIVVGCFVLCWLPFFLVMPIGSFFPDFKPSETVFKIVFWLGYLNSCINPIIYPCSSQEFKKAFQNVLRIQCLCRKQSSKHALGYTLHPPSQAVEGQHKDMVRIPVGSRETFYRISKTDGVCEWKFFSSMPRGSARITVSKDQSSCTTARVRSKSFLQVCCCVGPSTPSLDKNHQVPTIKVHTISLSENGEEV
Method: 32 μL of cell suspension (10,000 cells) were added to each well of a 384-well TC-Treated assay plate. Cells in Assay Media were incubated for 16-24 hours in the plate at 37° C./5% CO2 in a humidified incubator. […] 4 μL of Assay Media was added to all wells to bring the final assay volume to 40 μL. The plate was incubated for 5 hours at 37° C./5% CO2 in a humidified incubator. 8 μL of 1 μM Substrate+Loading Solution was added to each well and the plate was incubated for 2 hours at room temperature. The plate was read on a fluorescence plate reader.

[4] = agonist assay, 5 hours incubation, fluorescence read, read-out: α1A Activity, EC50

## CC(Oc1ccccc1-c1cccnc1)C1=NCCN1 (centres unmarked) [IV]
[1]
  EC50: > 25000 nM
[2]
  EC50: > 25 µM
[3]; [4]
  EC50: 13 nM
[3]
  selectivity of agonism (α1A and/or α2A EC50 less than 1,000 nM and insignificant activity at β2): selective α1A receptor agonist

## CC(Oc1ccccc1/C=N/O)C1=NCCN1 (centres unmarked) [V]
[1]
  EC50: 277 nM
[2]
  EC50: > 63 µM
[3]; [4]
  EC50: 32.6 nM
[3]
  selectivity of agonism (α1A and/or α2A EC50 less than 1,000 nM and insignificant activity at β2): selective α1A and α2A receptor agonist

## CC(Oc1ccccc1C1CCCC1)C1=NCCN1 (centres unmarked) [Compound III]
[1]
  EC50: 18.7 nM
[2]
  EC50: > 6.3 µM
[3]
  EC50: < 0.119 nM
